In US20230382910A1, “HETEROARYL COMPOUNDS FOR THE TREATMENT OF PAIN” (VERTEX PHARMACEUTICALS INCORPORATED, priority 2022, published 2023):

What follows are compounds tested against human NaV 1.8 (Homo sapiens, UniProt Q9Y5Y9) (assay: E-VIPR Assay Detecting and Measuring NaV Inhibition Properties). Details: HEK cells expressing a truncated form of human NaV 1.8; electrical stimulation, membrane potential FRET dyes; read-out: measured IC50 value in the E-VIPR Assay.
Assay type: cell-based
Excerpt: E-VIPR Assay Detecting and Measuring NaV Inhibition Properties
Sodium ion channels are voltage-dependent proteins that can be activated by inducing membrane voltage changes by applying electric fields. The electrical stimulation instrument and methods of use, referred to as E-VIPR, are described in International Publication No. WO 2002/008748 A3 and C.-J. Huang et al. Characterization of voltage-gated sodium channel blockers by electrical stimulation and fluorescence detection of membrane potential, 24 Nature Biotech. 439-46 (2006), both of which are incorporated by reference in their entirety. The instrument comprises a microtiter plate handler, an optical system for exciting the coumarin dye while simultaneously recording the coumarin and oxonol emissions, a waveform generator, a current- or voltage-controlled amplifier, and parallel electrode pairs that are inserted into assay plate wells. Under integrated computer control, this instrument passes user-programmed electrical stimulus protocols to cells within the wells of the microtiter plate.
16-20 hours prior to running the assay on E-VIPR, HEK cells expressing a truncated form of human NaV 1.8 with full channel activity were seeded into microtiter 384-well plates, pre-coated with matrigel, at a density of 25,000 cells per well. 2.5-5% KIR2.1 BacMam virus was added to the final cell suspension before seeding into cell plates. HEK cells were grown in Dulbecco's Modified Eagle's Medium (DMEM) supplemented with 10% FBS (Fetal Bovine Serum, qualified; Sigma #F4135), 1% NEAA (Non-Essential Amino Acids, Gibco #11140), 1% HEPES (Gibco #15630), 1% Pen-Strep (Penicillin-Streptomycin; Gibco #15140) and 5 μg/ml Blasticidin (Gibco #R210-01). Cells were expanded in 5-layer CellSTACK culture chambers or cell culture flasks with vented caps, with 90-95% humidity and 5% CO2.
Compound Loading Buffer (2× concentration): Na/TMA Cl Bath1 Buffer containing HS (omitted in experiments run in the absence of human serum (HS)) 50%, VABSC-1 1 mM, BSA 0.2 mg/ml (in Bath-1), KCl 9 mM, DMSO 0.625%.
Assay Protocol (7 Key Steps):
1) To reach the final concentration in each well, 375 nL of each compound was pre-spotted (in neat DMSO) into polypropylene compound plates at 240× desired final concentration from an intermediate stock concentration of 0.075 mM, in an 11-point dose response, 3-fold dilution, resulting in a top dose of 300 nM final concentration in the cell plate. Vehicle control (neat DMSO), and positive control (an established NaV1.8 inhibitor, 25 μM final in assay in DMSO) were added manually to the outermost columns of each plate respectively. The compound plate was backfilled with 45 μL per well of Compound Loading Buffer resulting in a 240-fold dilution of compound following a 1:1 transfer of compound into the cell plate (see Step 6). Final DMSO concentration for all wells in the assay was 0.625% (0.75% DMSO was supplemented to the Compound Loading Buffer for a final DMSO concentration of 0.625%). This assay dilution protocol was adjusted to enable a higher dose range to be tested in the presence of HS or if the final assay volume was altered.
2) Hexyl Dye Solution was prepared.
3) Cell plates were prepared. On the day of the assay, the media was aspirated, and the cells were washed three times with 80 μL of Bath-1 buffer, maintaining 25 μL residual volume in each well.
4) 25 μL per well of Hexyl Dye Solution was dispensed into the cell plates. The cells were incubated for 20 minutes at room temperature or ambient conditions in darkness.
5) 45 μL per well of Compound Loading Buffer was dispensed into compound plates.
6) The cell plates were washed three times with 80 μL per well of Bath-1 Buffer, leaving 25 µL of residual volume. Then 25 μL per well from compound plate was transferred to each cell plate. The mixture was incubated for 30 minutes at room temperature/ambient conditions. […]

Sequence of human NaV 1.8 (Q9Y5Y9 126-399 limits assumed): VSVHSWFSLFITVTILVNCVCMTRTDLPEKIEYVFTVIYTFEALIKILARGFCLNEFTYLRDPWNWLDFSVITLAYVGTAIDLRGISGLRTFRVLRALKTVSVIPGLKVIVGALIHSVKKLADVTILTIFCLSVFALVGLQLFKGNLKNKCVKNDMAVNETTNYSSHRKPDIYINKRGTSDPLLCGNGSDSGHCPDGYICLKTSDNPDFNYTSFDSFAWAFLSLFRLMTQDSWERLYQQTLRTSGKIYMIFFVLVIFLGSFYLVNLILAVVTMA
Sequence of human NaV 1.8 (Q9Y5Y9 660-890 limits assumed): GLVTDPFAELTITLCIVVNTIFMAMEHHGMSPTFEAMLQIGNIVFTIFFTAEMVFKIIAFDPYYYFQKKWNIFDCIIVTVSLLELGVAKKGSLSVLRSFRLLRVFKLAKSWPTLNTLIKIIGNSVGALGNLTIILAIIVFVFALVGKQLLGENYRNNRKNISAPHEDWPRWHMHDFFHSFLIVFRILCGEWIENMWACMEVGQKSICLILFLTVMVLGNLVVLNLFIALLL
Sequence of human NaV 1.8 (Q9Y5Y9 1148-1722 limits assumed): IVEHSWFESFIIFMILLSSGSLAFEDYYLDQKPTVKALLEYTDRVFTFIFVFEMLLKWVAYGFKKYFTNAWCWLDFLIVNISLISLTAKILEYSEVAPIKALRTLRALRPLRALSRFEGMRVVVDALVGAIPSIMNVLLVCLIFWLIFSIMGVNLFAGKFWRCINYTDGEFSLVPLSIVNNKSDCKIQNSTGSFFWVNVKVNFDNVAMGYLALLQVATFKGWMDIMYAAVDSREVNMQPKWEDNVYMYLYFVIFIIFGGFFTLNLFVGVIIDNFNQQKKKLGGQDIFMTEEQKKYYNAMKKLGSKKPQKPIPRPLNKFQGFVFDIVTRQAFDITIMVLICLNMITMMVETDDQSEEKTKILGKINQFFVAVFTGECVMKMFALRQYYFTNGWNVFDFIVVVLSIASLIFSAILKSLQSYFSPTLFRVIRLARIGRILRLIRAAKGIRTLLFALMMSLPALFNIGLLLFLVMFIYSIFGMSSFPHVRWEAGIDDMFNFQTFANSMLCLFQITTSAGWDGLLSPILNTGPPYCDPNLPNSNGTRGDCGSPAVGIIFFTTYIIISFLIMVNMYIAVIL

| SMILES | IC50 [nM] |
| --- | --- |
| Cc1ccc(-c2cc(=O)c3ccccc3[nH]2)c(C)c1 [Compound 6, 2-(2,4-dimethylphenyl)-1H-quinolin-4-one] | 2000 to 5000 |
| Cc1ccc(C(F)(F)F)cc1-c1cc(=O)c2ccccc2[nH]1 [Compound 17, 2-[2-methyl-5-(trifluoromethyl)phenyl]-1H-quinolin-4-one] | 2000 to 5000 |
| COc1cc(C(F)(F)F)ccc1-c1cc(=O)c2ccccc2[nH]1 [Compound 19, 2-[2-methoxy-4-(trifluoromethyl)phenyl]-1H-quinolin-4-one] | 2000 to 5000 |
| COc1cc(C)c(-c2cc(=O)c3ccccc3[nH]2)cc1C [Compound 23, 2-(4-methoxy-2,5-dimethyl-phenyl)-1H-quinolin-4-one] | 2000 to 5000 |
| CCOc1cc(C(F)(F)F)ccc1-c1cc(=O)c2ccccc2[nH]1 [Compound 28, 2-[2-ethoxy-4-(trifluoromethyl)phenyl]-1H-quinolin-4-one] | 2000 to 5000 |
| Cc1ccc(C)c(-c2cc(=O)c3ccccc3[nH]2)c1 [Compound 52, 2-(2,5-dimethylphenyl)-1H-quinolin-4-one] | 2000 to 5000 |
| O=c1cc(-c2cc3c(cc2Cl)CCC3)[nH]c2ccccc12 [Compound 70, 2-(6-chloroindan-5-yl)-1H-quinolin-4-one] | 2000 to 5000 |
| COc1cc(C)c(C)cc1-c1cc(=O)c2ccccc2[nH]1 [Compound 72, 2-(2-methoxy-4,5-dimethyl-phenyl)-1H-quinolin-4-one] | 2000 to 5000 |
| Cc1cc(Cl)ccc1-c1cc(=O)c2ccccc2[nH]1 [Compound 75, 2-(4-chloro-2-methyl-phenyl)-1H-quinolin-4-one] | 2000 to 5000 |
| Cc1cc(C(C)(C)C)ccc1-c1cc(=O)c2cccnc2[nH]1 [Compound 111, 2-(4-tert-butyl-2-methyl-phenyl)-1H-1,8-naphthyridin-4-one] | 2000 to 5000 |
| Cc1cc(C2(C#N)CC2)ccc1-c1cc(=O)c2ccccc2[nH]1 [Compound 138, 1-[3-methyl-4-(4-oxo-1H-quinolin-2-yl)phenyl]cyclopropanecarbonitrile] | 2000 to 5000 |
| CCOC(=O)c1ccc(-c2cc(=O)c3ccccc3[nH]2)c(C)c1 [Compound 166, ethyl 3-methyl-4-(4-oxo-1H-quinolin-2-yl)benzoate] | 2000 to 5000 |
| Cc1cc(C(C)(C)C)ccc1-c1cc(=O)c2cccc(C)c2[nH]1 [Compound 209, 2-(4-tert-butyl-2-methyl-phenyl)-8-methyl-1H-quinolin-4-one] | 500 to 2000 |
| Cc1ccc(C(C)(C)C)cc1-c1cc(=O)c2c(C(N)=O)nccc2[nH]1 [Compound 212, 2-(5-tert-butyl-2-methyl-phenyl)-4-oxo-1H-1,6-naphthyridine-5-carboxamide] | 500 to 2000 |
| Cc1nc(C(C)(C)C)ccc1-c1cc(=O)c2c(C(N)=O)nccc2[nH]1 [Compound 221, 2-(6-tert-butyl-2-methyl-3-pyridyl)-4-oxo-1H-1,6-naphthyridine-5-carboxamide] | 500 to 2000 |
| CCc1cc(-c2cc(=O)c3c(C(N)=O)nccc3[nH]2)c(C)cc1C [Compound 224, 2-(5-ethyl-2,4-dimethyl-phenyl)-4-oxo-1H-1,6-naphthyridine-5-carboxamide] | 500 to 2000 |
| CC(C)(C)c1ccc(-c2cc(=O)c3c(C(N)=O)nccc3[nH]2)c(F)c1 [Compound 228, 2-(4-tert-butyl-2-fluoro-phenyl)-4-oxo-1H-1,6-naphthyridine-5-carboxamide] | 500 to 2000 |
| Cc1cc(-c2cc(=O)c3c(C(N)=O)nccc3[nH]2)c(C)cc1Cl [Compound 231, 2-(4-chloro-2,5-dimethyl-phenyl)-4-oxo-1H-1,6-naphthyridine-5-carboxamide] | 500 to 2000 |
| Cc1cc(C)c(C(C)C)cc1-c1cc(=O)c2c(C(N)=O)nccc2[nH]1 [Compound 234, 2-(5-isopropyl-2,4-dimethyl-phenyl)-4-oxo-1H-1,6-naphthyridine-5-carboxamide] | 500 to 2000 |
| CC1(C)CCC(C)(C)c2cc(-c3cc(=O)c4c(C(N)=O)nccc4[nH]3)ccc21 [Compound 239, 4-oxo-2-(1,1,4,4-tetramethyltetralin-6-yl)-1H-1,6-naphthyridine-5-carboxamide] | 500 to 2000 |

Further lines, results first:

| IC50 [nM] | SMILES |
| --- | --- |
| 500 to 2000 | Cc1cc(C(C)(CO)C(F)(F)F)c(Cl)cc1-c1cc(=O)c2c(C(N)=O)nccc2[nH]1 (single isomer, unassigned) [Compound 365] |
| 500 to 2000 | CC(C)(C)c1ccc(-c2cc(=O)c3ccccc3[nH]2)cc1 [Compound 5, 2-(4-tert-butylphenyl)-1H-quinolin-4-one] |
| 500 to 2000 | Cc1ccc(C(C)(C)C)cc1-c1cc(=O)c2ccccc2[nH]1 [Compound 7, 2-(5-tert-butyl-2-methyl-phenyl)-1H-quinolin-4-one] |
| 500 to 2000 | Cc1cc(C2CC2)ccc1-c1cc(=O)c2ccccc2[nH]1 [Compound 8, 2-(4-cyclopropyl-2-methyl-phenyl)-1H-quinolin-4-one] |
| 500 to 2000 | Cc1c(-c2cc(=O)c3ccccc3[nH]2)ccc2c1CCC2 [Compound 12, 2-(4-methylindan-5-yl)-1H-quinolin-4-one] |
| 500 to 2000 | Cc1cc(OC(F)(F)F)ccc1-c1cc(=O)c2ccccc2[nH]1 [Compound 54, 2-[2-methyl-4-(trifluoromethoxy)phenyl]-1H-quinolin-4-one] |
| 500 to 2000 | Cc1ccc(-c2cc(=O)c3ccccc3[nH]2)c(C)c1Cl [Compound 74, 2-(3-chloro-2,4-dimethyl-phenyl)-1H-quinolin-4-one] |
| 500 to 2000 | Cc1cc(C(C)(C)C)ccc1-c1cc(=O)c2c[n+]([O-])ccc2[nH]1 [Compound 107, 2-(4-tert-butyl-2-methyl-phenyl)-6-oxido-1H-1,6-naphthyridin-6-ium-4-one] |
| 500 to 2000 | Cc1cc(Cl)c(Cl)cc1-c1cc(=O)c2ccccc2[nH]1 [Compound 117, 2-(4,5-dichloro-2-methyl-phenyl)-1H-quinolin-4-one] |
| 500 to 2000 | Cc1cc(Cl)c(Cl)cc1-c1cc(=O)c2cnccc2[nH]1 [Compound 118, 2-(4,5-dichloro-2-methyl-phenyl)-1H-1,6-naphthyridin-4-one] |
| 500 to 2000 | Cc1cc(C)c(-c2cc(=O)c3c(C#N)cccc3[nH]2)cc1C [Compound 123, 4-oxo-2-(2,4,5-trimethylphenyl)-1H-quinoline-5-carbonitrile] |
| 500 to 2000 | Cc1cc(C)c(-c2cc(=O)c3ccccc3[nH]2)cc1C [Compound 124, 2-(2,4,5-trimethylphenyl)-1H-quinolin-4-one] |
| 500 to 2000 | Cc1ccc2[nH]c(-c3ccc(C(C)(C)C)cc3C)cc(=O)c2c1 [Compound 126, 2-(4-tert-butyl-2-methyl-phenyl)-6-methyl-1H-quinolin-4-one] |
| 500 to 2000 | COC(C)(C)c1ccc(-c2cc(=O)c3ccccc3[nH]2)c(C)c1 [Compound 180, 2-[4-(1-methoxy-1-methyl-ethyl)-2-methyl-phenyl]-1H-quinolin-4-one] |
| 500 to 2000 | Cc1cc(-c2cc(=O)c3c[n+]([O-])ccc3[nH]2)c(C)nc1C(C)(C)C [Compound 195, 2-(6-tert-butyl-2,5-dimethyl-3-pyridyl)-6-oxido-1H-1,6-naphthyridin-6-ium-4-one] |
| 500 to 2000 | Cc1cc(-c2cc(=O)c3c(=O)[nH]ccc3[nH]2)c(C)nc1C(F)(F)F [Compound 200, 2-[2,5-dimethyl-6-(trifluoromethyl)-3-pyridyl]-1,6-dihydro-1,6-naphthyridine-4,5-dione] |
| 500 to 2000 | COc1cccc2[nH]c(-c3ccc(C4(C(F)(F)F)CC4)cc3C)cc(=O)c12 [Compound 208, 5-methoxy-2-[2-methyl-4-[1-(trifluoromethyl)cyclopropyl]phenyl]-1H-quinolin-4-one] |
